According to ChEMBL document CHEMBL1157610, “Bis(morpholino-1,3,5-triazine) derivatives: potent adenosine 5'-triphosphate competitive phosphatidylinositol-3-kinase/mammalian target of rapamycin inhibitors: discovery of compound 26 (PKI-587), a highly efficacious dual inhibitor” (J Med Chem, 2010):
≈ marks a conversion by molar mass, not a printed value. Calls of active or inactive are those of the source. The calls are words filed in the database; no cut-off is given here.

How the values were obtained:
[1] = Solubility at pH 7.4; assay type: physicochemical; settings: buffer
[2] = molecular target: Phosphatidylinositol 4,5-bisphosphate 3-kinase catalytic subunit gamma isoform (Homo sapiens, UniProt P48736)
Chain of Phosphatidylinositol 4,5-bisphosphate 3-kinase catalytic subunit gamma isoform (P48736 whole entry, canonical isoform): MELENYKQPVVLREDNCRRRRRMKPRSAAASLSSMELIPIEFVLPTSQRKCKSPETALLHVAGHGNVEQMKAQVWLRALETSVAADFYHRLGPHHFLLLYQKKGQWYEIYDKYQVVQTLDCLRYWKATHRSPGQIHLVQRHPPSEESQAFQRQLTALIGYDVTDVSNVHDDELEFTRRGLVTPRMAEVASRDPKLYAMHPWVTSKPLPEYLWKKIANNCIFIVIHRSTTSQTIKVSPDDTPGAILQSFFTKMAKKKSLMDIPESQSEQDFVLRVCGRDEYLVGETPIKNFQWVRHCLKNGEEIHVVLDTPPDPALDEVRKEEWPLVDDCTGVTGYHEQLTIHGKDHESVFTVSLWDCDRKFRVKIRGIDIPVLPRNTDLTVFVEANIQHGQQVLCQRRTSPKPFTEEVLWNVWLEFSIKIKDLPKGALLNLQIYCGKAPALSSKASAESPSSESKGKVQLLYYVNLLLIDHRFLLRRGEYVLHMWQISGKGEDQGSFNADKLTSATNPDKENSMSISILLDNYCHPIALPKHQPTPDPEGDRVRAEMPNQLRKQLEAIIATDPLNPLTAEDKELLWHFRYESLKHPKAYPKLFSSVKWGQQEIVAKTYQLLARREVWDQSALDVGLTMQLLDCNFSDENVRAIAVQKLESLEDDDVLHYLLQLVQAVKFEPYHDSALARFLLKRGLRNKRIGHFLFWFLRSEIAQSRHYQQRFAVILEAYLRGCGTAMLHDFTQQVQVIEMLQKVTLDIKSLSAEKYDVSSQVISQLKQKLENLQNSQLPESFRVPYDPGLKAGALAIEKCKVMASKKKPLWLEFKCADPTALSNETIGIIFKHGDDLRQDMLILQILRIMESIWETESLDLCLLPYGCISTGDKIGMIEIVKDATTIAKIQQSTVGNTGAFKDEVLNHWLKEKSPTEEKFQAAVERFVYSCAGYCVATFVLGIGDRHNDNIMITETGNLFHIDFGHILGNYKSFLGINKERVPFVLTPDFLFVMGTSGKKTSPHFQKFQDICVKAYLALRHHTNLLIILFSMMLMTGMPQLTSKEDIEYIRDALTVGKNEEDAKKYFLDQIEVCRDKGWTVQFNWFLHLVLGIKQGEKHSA

[3] = test system: MDA-MB-361; experiment: cells; settings: Homo sapiens
[4] = molecular target: Serine/threonine-protein kinase mTOR (Homo sapiens, UniProt P42345)
[5] = cells; settings: Homo sapiens, PC3MM2
[6] = molecular target: Phosphatidylinositol 4,5-bisphosphate 3-kinase catalytic subunit alpha isoform (Homo sapiens, UniProt P42336)
Chain of Phosphatidylinositol 4,5-bisphosphate 3-kinase catalytic subunit alpha isoform (P42336 whole entry, canonical isoform): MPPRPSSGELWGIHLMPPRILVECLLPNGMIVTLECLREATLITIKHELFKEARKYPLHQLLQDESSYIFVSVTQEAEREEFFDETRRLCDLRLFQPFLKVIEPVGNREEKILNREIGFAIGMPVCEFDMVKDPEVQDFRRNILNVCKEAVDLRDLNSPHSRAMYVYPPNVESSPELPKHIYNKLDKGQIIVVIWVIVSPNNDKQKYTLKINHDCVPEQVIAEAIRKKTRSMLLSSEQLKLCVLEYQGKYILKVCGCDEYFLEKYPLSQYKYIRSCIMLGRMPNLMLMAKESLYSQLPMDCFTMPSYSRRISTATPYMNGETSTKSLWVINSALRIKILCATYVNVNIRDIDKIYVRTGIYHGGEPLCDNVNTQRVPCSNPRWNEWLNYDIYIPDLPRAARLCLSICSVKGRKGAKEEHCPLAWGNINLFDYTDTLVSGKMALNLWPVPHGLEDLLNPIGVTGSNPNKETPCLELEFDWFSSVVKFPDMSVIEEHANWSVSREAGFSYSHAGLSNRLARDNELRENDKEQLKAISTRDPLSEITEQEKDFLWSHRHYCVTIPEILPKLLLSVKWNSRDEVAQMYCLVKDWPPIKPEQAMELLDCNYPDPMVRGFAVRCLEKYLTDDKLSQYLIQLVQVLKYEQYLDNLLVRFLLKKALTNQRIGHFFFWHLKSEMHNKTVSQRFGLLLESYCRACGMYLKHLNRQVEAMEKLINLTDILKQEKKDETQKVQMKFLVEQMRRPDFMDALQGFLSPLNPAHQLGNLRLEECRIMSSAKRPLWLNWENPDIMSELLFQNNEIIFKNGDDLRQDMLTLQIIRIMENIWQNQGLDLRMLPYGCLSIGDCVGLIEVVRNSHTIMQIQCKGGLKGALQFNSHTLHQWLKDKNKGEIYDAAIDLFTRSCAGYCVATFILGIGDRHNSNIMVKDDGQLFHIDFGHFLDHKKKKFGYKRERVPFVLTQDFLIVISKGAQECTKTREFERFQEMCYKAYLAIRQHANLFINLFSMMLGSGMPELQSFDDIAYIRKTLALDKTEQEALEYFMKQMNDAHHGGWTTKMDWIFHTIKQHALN

[7] = Membrane permeability at pH 7.4 by PAMPA assay; assay type: ADME; settings: read-out: permeability
[8] = test system: Mus musculus; experiment: Antitumor activity against human MDA-MB-361 cells xenografted mouse model assessed as minimum effective dose; assay type: functional; settings: read-out: MED
[9] = […] in mouse at 25 mg/kg, iv; assay type: ADME, organism-based; design: dose 25 mg/kg, route intravenous; settings: in vivo
[10] = AUC (0 to infinity) in mouse at 25 mg/kg, iv; assay type: ADME, organism-based; design: dose 25 mg/kg, route intravenous, time infinity; settings: plasma
[11] = molecular target: RAC-alpha serine/threonine-protein kinase (Homo sapiens) (UniProt P31749); experiment: Inhibition of Akt T308 phosphorylation in human MDA-MB-361 cells xenografted mouse model upto 36 hrs; assay type: cell-based
Chain of RAC-alpha serine/threonine-protein kinase (Homo sapiens) (P31749 whole entry): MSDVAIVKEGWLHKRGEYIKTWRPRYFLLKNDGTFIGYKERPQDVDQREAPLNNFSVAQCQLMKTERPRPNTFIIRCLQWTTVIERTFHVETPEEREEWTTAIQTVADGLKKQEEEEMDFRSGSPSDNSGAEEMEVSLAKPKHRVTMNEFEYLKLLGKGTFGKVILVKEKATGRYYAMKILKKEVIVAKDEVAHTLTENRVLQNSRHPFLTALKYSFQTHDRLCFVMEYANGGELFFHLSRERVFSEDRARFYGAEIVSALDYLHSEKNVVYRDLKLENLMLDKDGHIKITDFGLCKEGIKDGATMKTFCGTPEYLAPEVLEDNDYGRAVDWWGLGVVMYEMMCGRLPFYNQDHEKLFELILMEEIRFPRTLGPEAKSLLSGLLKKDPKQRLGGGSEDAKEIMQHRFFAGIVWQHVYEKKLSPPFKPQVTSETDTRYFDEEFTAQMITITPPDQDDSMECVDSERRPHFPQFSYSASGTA

[12] = molecular target: T1, Nitric oxide synthase 3 (Homo sapiens) (UniProt P29474); experiment: Inhibition of eNOS phosphorylation in human MDA-MB-361 cells by Western blotting; assay type: cell-based
T1 sequence (whole entry): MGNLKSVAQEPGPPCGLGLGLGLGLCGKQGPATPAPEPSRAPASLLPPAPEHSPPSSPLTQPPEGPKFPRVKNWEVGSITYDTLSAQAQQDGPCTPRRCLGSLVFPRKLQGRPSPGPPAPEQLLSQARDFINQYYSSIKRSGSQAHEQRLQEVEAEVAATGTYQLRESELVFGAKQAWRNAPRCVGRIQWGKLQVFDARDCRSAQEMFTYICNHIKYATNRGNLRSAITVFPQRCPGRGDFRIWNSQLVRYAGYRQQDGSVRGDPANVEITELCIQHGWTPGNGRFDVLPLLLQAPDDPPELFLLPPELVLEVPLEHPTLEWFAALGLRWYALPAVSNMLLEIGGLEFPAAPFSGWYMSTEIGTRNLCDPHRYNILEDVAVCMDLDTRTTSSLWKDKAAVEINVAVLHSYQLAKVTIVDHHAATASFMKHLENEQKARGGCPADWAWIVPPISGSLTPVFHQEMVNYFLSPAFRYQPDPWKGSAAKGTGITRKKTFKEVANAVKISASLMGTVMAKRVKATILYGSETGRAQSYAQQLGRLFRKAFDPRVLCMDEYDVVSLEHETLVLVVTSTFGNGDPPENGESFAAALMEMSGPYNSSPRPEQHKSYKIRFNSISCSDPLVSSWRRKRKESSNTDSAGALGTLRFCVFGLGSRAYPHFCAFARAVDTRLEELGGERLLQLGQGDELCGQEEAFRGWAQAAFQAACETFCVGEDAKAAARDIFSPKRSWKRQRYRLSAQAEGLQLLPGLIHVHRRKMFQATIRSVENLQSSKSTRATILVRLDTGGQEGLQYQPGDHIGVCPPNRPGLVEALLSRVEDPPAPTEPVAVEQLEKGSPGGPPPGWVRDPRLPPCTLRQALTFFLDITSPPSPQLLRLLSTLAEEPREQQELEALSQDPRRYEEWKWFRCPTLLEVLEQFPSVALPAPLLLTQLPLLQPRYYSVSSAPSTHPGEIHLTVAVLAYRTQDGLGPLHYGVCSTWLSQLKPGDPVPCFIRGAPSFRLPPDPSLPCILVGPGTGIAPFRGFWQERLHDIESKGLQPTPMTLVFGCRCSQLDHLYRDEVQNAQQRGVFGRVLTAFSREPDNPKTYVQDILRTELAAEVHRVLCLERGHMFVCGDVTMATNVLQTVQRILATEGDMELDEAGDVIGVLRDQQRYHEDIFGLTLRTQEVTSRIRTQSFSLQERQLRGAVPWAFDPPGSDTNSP

[13] = Last AUC in mouse at 25 mg/kg, iv; assay type: ADME, organism-based; design: dose 25 mg/kg, route intravenous; settings: in vivo
[14] = test system: MDA-MB-361; experiment: Antitumor activity against human MDA-MB-361 cells xenografted mouse model assessed as reduction in tumor volume at 20 mg/kg, iv on day 1, 5, 9; assay type: functional, organism-based; design: dose 20 mg/kg
[15] = Volume of distribution at steady state in mouse at 25 mg/kg, iv; assay type: ADME, organism-based; design: dose 25 mg/kg, route intravenous; settings: in vivo, read-out: Vdss
[16] = molecular target: RAC-alpha serine/threonine-protein kinase (Homo sapiens) (UniProt P31749); experiment: Inhibition of Akt S473 phosphorylation in human MDA-MB-361 cells xenografted mouse model upto 36 hrs; assay type: cell-based
[17] = molecular target: Glycogen synthase kinase-3 (Homo sapiens) (UniProt P49840+P49841); experiment: Inhibition of GSK3 kinase phosphorylation in human MDA-MB-361 cells by Western blotting; assay type: cell-based
Chain of Glycogen synthase kinase-3 (Homo sapiens) (P49840 whole entry, looked up): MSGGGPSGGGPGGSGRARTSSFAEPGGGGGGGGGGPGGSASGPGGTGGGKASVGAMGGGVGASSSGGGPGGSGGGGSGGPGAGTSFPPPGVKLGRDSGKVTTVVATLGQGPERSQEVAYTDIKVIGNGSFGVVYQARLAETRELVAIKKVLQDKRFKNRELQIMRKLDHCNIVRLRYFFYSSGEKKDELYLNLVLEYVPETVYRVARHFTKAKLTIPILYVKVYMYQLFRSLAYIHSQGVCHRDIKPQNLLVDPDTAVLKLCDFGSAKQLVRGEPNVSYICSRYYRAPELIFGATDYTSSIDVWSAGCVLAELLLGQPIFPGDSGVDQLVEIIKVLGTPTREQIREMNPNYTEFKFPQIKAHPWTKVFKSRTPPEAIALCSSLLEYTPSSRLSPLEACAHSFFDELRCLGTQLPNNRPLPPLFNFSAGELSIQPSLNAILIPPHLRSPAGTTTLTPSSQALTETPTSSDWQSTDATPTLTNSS
Chain of Glycogen synthase kinase-3 (Homo sapiens) (P49841 whole entry, looked up): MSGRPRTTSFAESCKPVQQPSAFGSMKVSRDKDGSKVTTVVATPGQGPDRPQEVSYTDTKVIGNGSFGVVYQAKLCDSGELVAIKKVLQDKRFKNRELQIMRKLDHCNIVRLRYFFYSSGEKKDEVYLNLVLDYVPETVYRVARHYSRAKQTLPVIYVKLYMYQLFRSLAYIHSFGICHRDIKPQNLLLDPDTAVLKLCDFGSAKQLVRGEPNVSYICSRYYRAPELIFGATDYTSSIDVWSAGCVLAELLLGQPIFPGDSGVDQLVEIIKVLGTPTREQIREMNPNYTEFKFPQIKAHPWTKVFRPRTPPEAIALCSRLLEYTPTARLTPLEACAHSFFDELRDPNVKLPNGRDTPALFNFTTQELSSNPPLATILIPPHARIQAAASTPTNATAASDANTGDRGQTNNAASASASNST

[18] = Plasma clearance in mouse at 25 mg/kg, iv; assay type: ADME, organism-based; design: dose 25 mg/kg, route intravenous
[19] = test system: MDA-MB-361; experiment: Induction of PARP cleavage in human MDA-MB-361 cells xenografted mouse model upto 18 hrs; assay type: functional, cell-based
[20] = Half life in mouse at 25 mg/kg, iv; assay type: ADME, organism-based; design: dose 25 mg/kg, route intravenous; settings: in vivo
[21] = test system: Mus musculus; experiment: Antitumor activity against human MDA-MB-361 cells xenografted mouse model assessed as maximum tolerated single dose; assay type: functional
[22] = molecular target: Proline-rich AKT1 substrate 1 (Homo sapiens) (UniProt Q96B36); experiment: Inhibition of PARS40 phosphorylation in human MDA-MB-361 cells by Western blotting; assay type: cell-based
[23] = test system: NCI-H1975; experiment: Antitumor activity against human NCI-H1975 cells xenografted orthotopic mouse model assessed as survival at 25 mg/kg once weekly for 7 weeks relative to untreated control; assay type: functional

| Compound | solubility [1] [µg/mL] | IC50 [2] [nM] | IC50 [3] [nM] | IC50 [4] [nM] | IC50 [5] [nM] | IC50 [6] [nM] | Papp [7] [×10⁻⁶ cm/s] | further results |
| --- | --- | --- | --- | --- | --- | --- | --- | --- |
| O=C(Nc1ccc(C(=O)N2CCC(N3CCCC3)CC2)cc1)Nc1ccc(-c2nc(N3CCOCC3)nc(N3CCOCC3)n2)cc1 | 33.5 (≈ 52.2 µM) | 10 | 3 | 0.8 | 8.3 | 0.7 | – | – |
| O=C(Nc1ccc(-c2nc(N3CCOCC3)nc(N3CCOCC3)n2)cc1)Nc1ccnnc1 | 1 (≈ 2.16 µM) | – | 38 | – | 21 | – | – | – |
| O=C(Nc1ccc(Cl)cc1)Nc1ccc(-c2nc(N3CCOCC3)nc(N3CCOCC3)n2)cc1 | 1 (≈ 2.02 µM) | – | 407 | 6.7 | 293 | – | – | – |
| CN1CCN(C(=O)c2ccc(NC(=O)Nc3ccc(-c4nc(N5CCOCC5)nc(N5CCOCC5)n4)cc3)cc2)CC1 | – | 9 | 10 | 1.4 | 13 | 0.5 | – | – |
| O=C(Nc1ccccc1)Nc1ccc(-c2nc(N3CCOCC3)nc(N3CCOCC3)n2)cc1 | – | – | 56 | 3.9 | 107 | – | 0.2 | – |
| O=C(Nc1ccncc1)Nc1ccc(-c2nc(N3CCOCC3)nc(N3CCOCC3)n2)cc1 | – | – | 45 | 1.2 | 43 | – | 1.4 | – |
| CCNC(=O)Nc1ccc(-c2nc(N3CCOCC3)nc(N3CCOCC3)n2)cc1 | 1 (≈ 2.42 µM) | – | – | 10 | – | – | 0.7 | – |
| O=C(Nc1ccc(-c2nc(N3CCOCC3)nc(N3CCOCC3)n2)cc1)Nc1cccs1 | 2 (≈ 4.28 µM) | – | – | – | 218 | – | 2.4 | – |
| O=C(Nc1ccc(CCO)cc1)Nc1ccc(-c2nc(N3CCOCC3)nc(N3CCOCC3)n2)cc1 | – | 21.5 | 36 | 1.8 | 39 | 1.5 | – | – |
| O=C(Nc1ccc(-c2nc(N3CCOCC3)nc(N3CCOCC3)n2)cc1)NN1CCCCC1 | 100 (≈ 213 µM) | 7470 | – | 460 | – | 1520 | 0.01 | – |
| O=C(Nc1ccc(C(=O)O)cc1)Nc1ccc(-c2nc(N3CCOCC3)nc(N3CCOCC3)n2)cc1 | 52 (≈ 103 µM) | – | 816 | 1.5 | 28 | – | – | – |
| CNC(=O)Nc1ccc(-c2nc(N3CCOCC3)nc(N3CCOCC3)n2)cc1 | – | 789 | – | 11.3 | – | 350 | – | – |
| CNC(=O)c1ccc(NC(=O)Nc2ccc(-c3nc(N4CCOCC4)nc(N4CCOCC4)n3)cc2)cc1 | 1 (≈ 1.93 µM) | – | – | – | 24 | – | – | – |
| O=C(Nc1ccc(-c2nc(N3CCOCC3)nc(N3CCOCC3)n2)cc1)Nc1cccnc1 | – | – | – | 1.2 | 92 | 1.7 | 0.5 | – |
| COC(=O)c1ccc(NC(=O)Nc2ccc(-c3nc(N4CCOCC4)nc(N4CCOCC4)n3)cc2)cc1 | 1 (≈ 1.92 µM) | – | 115 | – | 45 | – | 0.6 | – |
| CN(C)CCN(C)C(=O)c1ccc(NC(=O)Nc2ccc(-c3nc(N4CCOCC4)nc(N4CCOCC4)n3)cc2)cc1.Cl | 9 | 9 | 9.8 | 0.6 | 18.3 | – | 0.03 | – |
| O=C(Nc1ccc(F)cc1)Nc1ccc(-c2nc(N3CCOCC3)nc(N3CCOCC3)n2)cc1 | – | – | 118 | 3.9 | 193 | 6.5 | 1 | – |
| CN(C)C1CCN(C(=O)c2ccc(NC(=O)Nc3ccc(-c4nc(N5CCOCC5)nc(N5CCOCC5)n4)cc3)cc2)CC1 [GEDATOLISIB] | 14 (≈ 22.7 µM) | – | – | – | – | – | 0.1 | minimal effective dose [8]: 3 mg/kg; MRT [9]: 16.7 h; AUC(0-inf) [10]: 57900 ng·h/mL; Activity [11]: Active; Activity [12]: Active; AUC [13]: 42600 ng·h/mL; Activity [14]: Active; Vd [15]: 7.2 L/kg; Activity [16]: Active; Activity [17]: Active; clearance [18]: 7 mL/min/kg; Activity [19]: Active; half-life [20]: 14.4 h; MTD [21]: 30 mg/kg; Activity [22]: Active; Activity [23]: 90% |
| O=C(Nc1ccc(C(=O)N2CCC(N3CCCCC3)CC2)cc1)Nc1ccc(-c2nc(N3CCOCC3)nc(N3CCOCC3)n2)cc1 | 31 (≈ 47.3 µM) | – | 3 | 0.7 | 7 | – | – | – |
| CN(C)CCNC(=O)c1ccc(NC(=O)Nc2ccc(-c3nc(N4CCOCC4)nc(N4CCOCC4)n3)cc2)cc1 | 7 (≈ 12.2 µM) | 8 | 3 | 0.5 | 11 | 0.4 | 0.1 | – |
| O=C(Nc1ccc(-c2nc(N3CCOCC3)nc(N3CCOCC3)n2)cc1)Nc1ccc(F)cc1F | 1 (≈ 2.01 µM) | – | 794 | – | 5630 | – | – | – |
| O=C(Nc1ccc(CO)cc1)Nc1ccc(-c2nc(N3CCOCC3)nc(N3CCOCC3)n2)cc1 | – | – | 30 | – | 30 | – | 0.2 | – |
| Cc1ccc(NC(=O)Nc2ccc(-c3nc(N4CCOCC4)nc(N4CCOCC4)n3)cc2)cc1 | – | – | 200 | – | 364 | – | 5.6 | – |
